Where two headings read alike, the source gives them in different places.
Assays:
[1] = test system: Phakopsora pachyrhizi; test: Use Example G3: curative activity against soybean rust (Phakpa K4); format: in vivo; conditions: alone, untreated control 76 % infection
Procedure: (§1) The active compounds were prepared separately or jointly as a stock solution with 25 mg of active compound which was made up to 10 ml using a mixture of acetone and/or DMSO and the emulsifier Wettol EM 31 (wetting agent having emulsifying and dispersing action based on ethoxylated alkylphenols) in a volume ratio of solvent:emulsifier of 99:1. The mixture was then made up with water to 100 ml. This stock solution was diluted with the solvent/emulsifier/water mixture described to give the active compound concentration stated below. Alternatively, the active compounds were used as a commercial finished formulation and diluted with water to the stated active compound concentration.
(§2) The visually determined values for the percentage of infected leaf area were initially converted into a mean value and then converted into efficancies in % of the untreated control. An efficacy of 0 means the same degree of infection as in the untreated control, an efficacy of 100 means 0% infection.
Leaves of potted soybean seedlings were inoculated with a spore suspension of soybean rust (Phakpsora pachyrhizi). The pots were then placed in a chamber of high atmospheric humidity (90 to 95%) and 20 to 24° C. for 24 hours. During this time, the spores germinated and the germ tubes penetrated into the leaf tissue. The infected plants were then cultivated further in a greenhouse at temperatures between 23 and 27° C. and 60 to 80% relative atmospheric humidity. After three days, the plants were sprayed to runoff point with the active compound solution described above at the active compound concentration stated below. After the spray coating had dried on, the test plants were cultivated in a greenhouse at temperatures between 23 and 27° C. and 60 to 80% relative atmospheric humidity for a further 10 days. The extent of the rust fungus development on the leaves was then determined visually in % infection.

[2] = test system: Septoria tritici; test: Use Example M4: activity against Septoria leaf spot pathogen in the microtiter test (Septtr); format: cell-based; conditions: alone
[3] = test system: Puccinia recondita; test: Use Example G4: protective activity against brown rust of wheat (Puccrt P1); format: in vivo; conditions: alone, untreated control 79 % infection
Procedure: as §1, §2
Leaves of potted wheat seedlings were sprayed to runoff point with an aqueous suspension having the active compound concentration stated below. The next day, the treated plants were inoculated with a spore suspension of brown rust of wheat (Puccinia recondita). The plants were then placed in a chamber of high atmospheric humidity (90 to 95%) at 20 to 24° C. for 24 hours. During this time, the spores germinated and the germ tubes penetrated into the leaf tissue. The next day, the test plants were returned to the greenhouse and cultivated at temperatures between 20 and 24° C. and 65 to 70% relative atmospheric humidity for a further 7 days. The extent of the rust fungus development on the leaves was then determined visually.

[4] = test system: Septoria tritici; test: Use Example G5: protective activity against Septoria leaf blotch of wheat (Septtr P1); format: in vivo; conditions: alone, untreated control 83 % infection
Procedure: as §1, §2
(§3) Leaves of potted wheat seedlings were sprayed to runoff point with an aqueous suspension having the active compound concentration stated below. 24 hours after the spray coating had dried on, they were inoculated with an aqueous spore suspension of Septoria tritici. The test plants were then placed in a greenhouse at temperatures between 18 and 22° C. and a relative atmospheric humidity close to 100% for 4 days and then at temperatures between 18 and 22° C. and an atmospheric humidity of about 70%. After 21 days, the extent of the development of the disease was determined visually in % infection of the total leaf area.

[5] = test system: Pyrenophora teres; test: Use Example M5: activity against Pyrenophora teres in the microtiter test (Pymte); format: cell-based; conditions: alone
[6] = test system: Pyricularia oryzae; format: cell-based; conditions: alone
[7] = test system: Phytophthora infestans; format: in vivo; conditions: alone, untreated control 86 % infection
[8] = test system: Botrytis cinerea; test: Use Example M2: activity against gray mold pathogen in the microtiter test (Botrci); format: cell-based; conditions: single active compound
[9] = test system: Phytophthora infestans; format: cell-based; conditions: single active compound
[10] = test system: Septoria tritici; test: Comparison No. C1: activity against Septoria leaf blotch pathogen in the microtiter test (Septtr); conditions: relative growth, active compound-free control = 100%
Procedure: An aqueous malt-based spore suspension of Septoria tritici was then added. The plates were placed in a water vapor-saturated chamber at a temperature of 18° C. Using an absorption photometer, the MTPs were measured at 405 nm on day 7 after the innoculation.

[11] = test system: Botrytis cinerea; test: Use Example G1: gray mold on bell pepper leaves, protective application (Botrci P1); format: in vivo; conditions: 1 ppm, alone; untreated control 86 % infection
Procedure: as §1, §2
Bell pepper seedlings were after 2-3 leaves were well developed, sprayed to runoff point with an aqueous suspension having the active compound concentration stated below. The next day, the treated plants were inoculated with a spore suspension of Botrytis cinerea in a 2% biomalt solution. […] After 5 days, the extent of the fungal infection on the leaves could be determined visually in %.

[12] = test system: Phakopsora pachyrhizi; test: Use Example G7: curative activity against soybean rust (Phakpa K3), % infection; format: in vivo; conditions: 150 ppm, curative spray two days after inoculation, further 10 days, untreated control 80% infected
Procedure: as §1
Leaves of potted soybean seedlings were inoculated with a spore suspension of soybean rust (Phakpsora pachyrhizi). The pots were then placed in a chamber of high atmospheric humidity (90 to 95%) and 20 to 24° C. for 24 hours. During this time, the spores germinated and the germ tubes penetrated into the leaf tissue. The infected plants were then cultivated further in a greenhouse at temperatures between 23 and 27° C. and 60 to 80% relative atmospheric humidity. […] The extent of the rust fungus development on the leaves was then determined visually in % infection.

[13] = test system: Septoria tritici; test: Use Example G6: protective activity against Septoria leaf blotch of wheat (Septtr P1), % infection; format: in vivo; conditions: 150 ppm, protective spray, after 21 days, untreated control 60% infected
Procedure: as §1, §3

## Fc1ccc([C@]2(Cn3cncn3)O[C@H]2c2ccccc2Cl)cc1 (racemic) [epoxiconazole]
[1]; 0.063 ppm
  Observed effect: 63%
[2]; 0.004 ppm
  Observed effect: 6
[2]; 0.016 ppm
  Observed effect: 22
[3]; 0.016 ppm
  Observed effect: 0%
[4]; 1 ppm
  Observed effect: 24%
[5]; 0.004 ppm
  Observed effect: 0%
[5]; 0.016 ppm
  Observed effect: 0%
[6]; ternary table, 0.016 ppm
  Observed effect: 0
[7]; 1 ppm
  Observed effect: 1%

## CC(=O)Sc1ncnn1C[C@]1(c2ccc(F)cc2)O[C@H]1c1ccccc1Cl (relative stereo) [I-3, trans-S-{2-[3-(2-chlorophenyl)-2-(4-fluorophenyl)oxiranylmethyl]-2H-[1,2,4]triazol-3-yl}thioacetate]
[2]; 1 ppm
  Observed effect: 3
[8]; 16 ppm
  Observed effect: 15%
[9]; 63 ppm
  Observed effect: 43%
[6]; 16 ppm
  Observed effect: 8
[6]; 63 ppm
  Observed effect: 62

## Fc1ccc([C@@]2(Cn3ncnc3S)O[C@H]2c2ccccc2F)cc1 (relative stereo) [I-8, trans-2-[2-(4-fluorophenyl)-3-(2-fluorophenyl)oxiranylmethyl]-2H-[1,2,4]triazole-3-thiole]
[8]; 63 ppm
  Observed effect: 24%

## N#Cc1c(Cl)c(Cl)c(Cl)c(C#N)c1Cl [chlorothalonil]
[2]; 0.063 ppm
  Observed effect: 3
[2]; ternary table, 0.063 ppm
  Observed effect: 3
[6]; ternary table, 0.063 ppm
  Observed effect: 4

## CNC(=O)/C(=N/OC)c1ccccc1COc1cc(C)ccc1C [dimoxystrobin]
[5]; 0.004 ppm
  Observed effect: 4%

## CCSc1ncnn1C[C@]1(c2ccc(F)cc2)O[C@H]1c1ccccc1Cl (relative stereo) [I-18, trans-1-[3-(2-chlorophenyl)-2-(4-fluorophenyl)oxiranylmethyl]-5-ethylsulfanyl-1H-[1,2,4]triazole]
[10]
  Growth in % at 8 ppm for Septtr: 39%

## COC(=O)NC(=S)Nc1ccccc1NC(=S)NC(=O)OC [thiophanate-methyl]
[1]; 4 ppm
  Observed effect: 8%
[7]; 63 ppm
  Observed effect: 0%

## Cc1cc(C)nc(Nc2ccccc2)n1 [pyrimethanil]
[6]; 4 ppm
  Observed effect: 47

## COC(=O)N(OC)c1ccccc1COc1ccn(-c2ccc(Cl)cc2)n1 [pyraclostrobin]
[11]
  Observed effect: 1%
[9]; 16 ppm
  Observed effect: 16%

## O=C(Nc1ccccc1-c1ccc(Cl)cc1)c1cccnc1Cl [boscalid]
[2]; ternary table, 0.063 ppm
  Observed effect: 10
[3]; 0.063 ppm
  Observed effect: 0%
[4]; 4 ppm
  Observed effect: 10%
[9]; 4 ppm
  Observed effect: 4%
[9]; 16 ppm
  Observed effect: 20%
[6]; 16 ppm
  Observed effect: 8
[6]; ternary table, 4 ppm
  Observed effect: 0

## CSc1ncnn1CC1(c2ccc(F)cc2)OC1c1ccccc1Cl (stereo not shown) [Prior art (WO 96/38440)]
[10]
  Growth in % at 8 ppm for Septtr: 65%

## COC(=O)Nc1nc2ccccc2[nH]1 [carbendazim]
[5]; 0.004 ppm
  Observed effect: 0%

## [Na+].[S-]c1ncnn1C[C@]1(c2ccccc2Cl)O[C@H]1c1ccccc1Cl (relative stereo) [I-10, sodium 2-[trans-2,3-bis-(2-chlorophenyl)oxiranylmethyl]-2H-[1,2,4]triazole-3-thiolate]
[9]; 16 ppm
  Observed effect: 30%
[6]; 16 ppm
  Observed effect: 35

## Fc1ccc([C@@]2(Cn3nc[nH]c3=S)O[C@H]2c2ccccc2Cl)cc1 (relative stereo) [I-1, trans-2-[3-(2-chlorophenyl)-2-(4-fluorophenyl)oxiranylmethyl]-2,4-dihydro-[1,2,4]triazole-3-thione]
[1]; 0.063 ppm
  Observed effect: 17%
[3]; 0.016 ppm
  Observed effect: 0%
[4]; 1 ppm
  Observed effect: 8%
[5]; 0.004 ppm
  Observed effect: 2%
[5]; 0.016 ppm
  Observed effect: 5%
[6]; 16 ppm
  Observed effect: 3
[7]; 1 ppm
  Observed effect: 0%

## S=c1[nH]cnn1C[C@]1(c2ccccc2)O[C@H]1c1ccccc1Cl (relative stereo) [I-12, 2-[trans-3-(2-chlorophenyl)-2-phenyloxiranylmethyl]-2,4-dihydro-[1,2,4]triazole-3-thione]
[6]; 16 ppm
  Observed effect: 7
[6]; 63 ppm
  Observed effect: 16

## CNC(=O)/C(=N/OC)c1ccccc1CO/N=C(C)/C(=N/OC)C(/C)=N/OC [orysastrobin]
[2]; ternary table, 0.004 ppm
  Observed effect: 2
[8]; 0.016 ppm
  Observed effect: 1%
[8]; 1 ppm
  Observed effect: 2%
[6]; ternary table, 0.016 ppm
  Observed effect: 2

## CO/N=C(/C(=O)OC)c1ccccc1COc1ccccc1C [kresoxim-methyl]
[1]; 1 ppm
  Observed effect: 39%

## Fc1ccccc1[C@@]1(Cn2nc[nH]c2=S)O[C@H]1c1ccccc1Cl (relative stereo) [I-14, 2-[trans-3-(2-chlorophenyl)-2-(2-fluorophenyl)oxiranylmethyl]-2,4-dihydro-[1,2,4]triazole-3-thione]
[2]; 1 ppm
  Observed effect: 0
[9]; 16 ppm
  Observed effect: 26%
[6]; 16 ppm
  Observed effect: 18

## N#CSc1ncnn1C[C@]1(c2ccc(F)cc2)O[C@H]1c1ccccc1Cl (relative stereo) [I-6, trans-1-[3-(2-chlorophenyl)-2-(4-fluorophenyl)oxiranylmethyl]-5-thiocyanato-1H-[1,2,4]triazole]
[12]
  infection (rust fungus development on the leaves, % infection): 0%
[13]
  infection (% infection of the total leaf area): 0%

— US20120088662A1, “FUNGICIDAL MIXTURES” (BASF SE, priority 2009, published 2012)
